Type in all cases: cell-based
Assay [1] deals with KRAS G12D mutant human lung cancer cell A427. Put plainly: 3D cell proliferation inhibition assay, A427. The following applies: A-427, 168 h, A427, 7 days, CTG. The text has this: (§1) The inhibitory effects of the compounds on 3D cell proliferation were investigated on KRAS G12D mutant human lung cancer cell A427, KRAS G12D mutant human gastric cancer cell AGS, KRAS G12D mutant human metastatic pancreatic cancer cell AsPc-1, KRAS G12D mutant human pancreatic cancer cell Panc 04.03, KRAS G12D mutant human pancreatic cancer cell HPAC, KRAS G12V mutant human lung squamous cell carcinoma cell SW900, and KRAS WT human gastric cancer cell MKN1. The specific procedures were as follows:
(§2) 10 μL of each compound solution diluted in a gradient was added to corresponding wells of a 96-well low-adsorption microplate (PerkinElmer), so that the final concentrations of the test compounds in the reaction system were in a range of 10000-0.026 nM. The final concentration of DMSO was 0.2%. Then 90 µL of cells were correspondingly seeded into each well to achieve a cell density of 5×10^2 cells/well (the cell density of SW900 was 5×10^1 cells/well, and the cell density of MKN1 was 1×10^3 cells/well). In addition to test wells for the test compounds, both a DMSO control well and a medium control well were set, with the DMSO control well containing DMSO and cells and the medium well containing only a medium. After the sample loading, the 96-well low-adsorption microplate was incubated in an incubator at 37° C. with 5% carbon dioxide for 7 days. After 7 days, the microplate was taken out, and 100 μL of CTG reagent (Promega) was added to each well. The plate was incubated at room temperature for 60 min and read on a microplate reader EnVision by the chemiluminescence program. The inhibition rates of the compounds at each concentration were calculated using the formula for the percentage inhibition of cell proliferation: inhibition rate %=(mean value of DMSO control group−single concentration reading value of compound)/(mean value of DMSO control group−mean value of medium control group)×100. Then non-linear curve fittings for logarithmic concentration-inhibition rate were performed by GraphPad Prism 8, and the IC50 values of the compounds were obtained (Table 5).

The subject of assay [2] is KRAS G12D mutant human gastric cancer cell AGS. Put plainly: 3D cell proliferation inhibition assay, AGS. The note with it: 168 h, 7 days, CTG.
From the text: as §1, §2

The next assay addresses T1, KRAS-G12D (Homo sapiens, UniProt P01116, G12D).
T1 construct: endogenous in cells; host or cells: A-427 (ATCC), AGS, AsPc-1, Panc 04.03
The experiment in a line: KRAS-G12D degradation assay (Western Blot), A-427 cells. The note with it: A427 cells, 24 h; for Dmax: A-427. Here is the method: The degradation effects of the compounds on KRAS-G12D were investigated on KRAS G12D mutant human lung cancer cell A-427 (ATCC), KRAS G12D mutant human gastric cancer cell AGS, KRAS G12D mutant human metastatic pancreatic cancer cell AsPc-1, and KRAS G12D mutant human pancreatic adenocarcinoma cell Panc 04.03. The specific procedures were as follows: 0.95 mL of cells were seeded into each well of a 24-well cell culture plate to achieve a cell density of 5×10^5 cells/well; and the cell plate was incubated in an incubator at 37° C. with 5% CO2 overnight. Then 50 μL of the compound solution after dilution was added to each of the wells with the corresponding cells, so that the final concentration of the compound was in a range of 0.03-3000 nM. The final concentration of DMSO was 0.25%. After the compounds were added, the cell plate was incubated in the incubator at 37° C. with 5% CO2 for 24 h. The culture medium in the 24-well cell culture plate was removed, and the plate was washed twice with 1×PBS (KeyGEN). 120 μL of RIPA (strong) lysis buffer (Beyotime) supplemented with 1 mM phenylmethylsulfonyl fluoride, a protease inhibitor mixture (Beyotime), and a protease phosphatase inhibitor mixture (Beyotime) was added to lyse adherent A-427 cells at the bottom of the cell culture plate. After the plate was left to stand on ice for 30 min, the protein lysate in each well was transferred to a 1.5 mL centrifuge tube and centrifuged at 15000 g for 20 min at 4° C. The cell lysate supernatants after centrifugation were cryopreserved in a refrigerator at −80° C. for later use.
After the samples of the cell lysate supernatants that had been prepared were thawed from the refrigerator at −80° C., the total protein concentrations of the cell lysates were determined using a BCA protein quantification kit (Tiangen). The total protein concentrations of the samples were then adjusted to 0.5 μg/μL with PBS and 5×SDS-PAGE protein loading buffer (Beyotime), and the samples were incubated in a water bath at 100° C. for 15 min. The samples were then incubated in an ice bath for 5 min and centrifuged at 14000 g for 1 min at 4° C., and the supernatants were mixed well as loading samples for the Western Blot assay. The samples were loaded into wells of a 10% precast gel (KeyGEN) with a loading volume of 10 μL (total protein: 5 μg), a sufficient Tris-MOPS-SDS running buffer (Adamas) was added, and then electrophoresis was performed at a constant voltage of 120 V for 55 min. After the electrophoresis, the proteins on the gel were transferred to PVDF membranes at a constant current of 250 mA for 55 min. After the membrane transfer, the PVDF membranes were incubated in 1× Quick Block blocking buffer (Beyotime) at room temperature for 30 min. After the blocking, the PVDF membranes were separately incubated at 4° C. overnight with the KRAS antibody (Abcam) diluted in a ratio of 1:1000 and the […] antibody (Abcam) diluted in a ratio of 1:2000 in 5% BSA as the diluent, and then washed with 1×TBST buffer (2.4 g of Tris, 8.8 g of NaCl, 1.5 mL of Tween 20, with pH adjusted to 7.4, with the volume brought to 1 L) 3 times for 10 min/time. The membranes were incubated with a secondary antibody (Abcam) diluted in 5% BSA at room temperature for 2 h, and then washed with 1×TBST buffer 3 times for 10 min/time. Finally, the membranes were incubated with Clarity Western ECL Substrate (BIO-RAD) for 5 min for luminescence and color development, and a ChemiScope 6200 Touch chemiluminescence imaging system (Clinx) was used for color development and protein mapping. Gray value analysis of the protein maps was performed using the chemiluminescence analysis software (Clinx). The gray correction value for each sample was calculated using the formula: gray correction value=(gray value of target protein/gray value of corresponding internal reference)×10^3. Then degradation rates were calculated by comparison with the gray correction value of the control group. […]
(Immunoblotting shows a protein as a band on a membrane.)

This passage reports IC50, DC50 and Dmax results from patent US20260166159A1, “KRAS G12D DEGRADATION AGENT, AND PREPARATION METHOD AND USE THEREFOR” (LEADINGTAC PHARMACEUTICAL (SHAOXING) CO., LTD., priority 2022, published 2026).

T1 sequence (P01116 1-188 isoform P01116-2 G12D): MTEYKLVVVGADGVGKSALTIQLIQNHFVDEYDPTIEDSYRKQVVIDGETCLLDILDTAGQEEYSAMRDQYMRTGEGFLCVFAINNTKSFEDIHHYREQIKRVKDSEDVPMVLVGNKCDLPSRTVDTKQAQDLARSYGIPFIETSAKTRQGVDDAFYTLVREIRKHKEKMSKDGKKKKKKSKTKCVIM

The term IC50 denotes the concentration at which inhibition is half-maximal. Low readings indicate higher potency, high ones lower potency. In general, DC50 refers to the concentration at which degradation of the target reaches its halfway point. Read a low DC50 as degradation at low concentration. One may read the Dmax as the largest share of the target that was removed. A low value points to shallow degradation. Take `C#Cc1c(F)ccc2cc(O)cc(-c3ncc4c(N5CC6CCC(C5)N6)nc(OCC5(CN6CCN(CC7CCC8(CC7)CCN(C(=O)c7ccc(OC(F)(F)F)c(N9CCC(=O)NC9=O)c7)CC8)CC6)CC5)nc4c3F)c12` [Example 39, 1-(5-(9-((4-((1-(((4-(3,8-diazabicyclo[3.2.1]octan-3-yl)-7-(8-ethynyl-7-fluoro-3-hydroxynaphthalen-1-yl)-8-fluoropyrido[4,3-d]pyrimidin-2-yl)oxy)methyl)cyclopropyl)methyl)piperazin-1-yl)methyl)-3-azaspiro[5.5]undecane-3-carbonyl)-2-(trifluoromethoxy)phenyl)dihydropyrimidine-2,4(1H,3H)-dione]: the figures for the IC50 in assay [1] (class symbols) and in assay [2] (class symbols) were 100 to 500 nM and no more than 50 nM, respectively. In addition, the half-maximal degradation concentration (DC50) on KRAS-G12D (class symbols) was no more than 50 nM. This molecule also displayed a Dmax at KRAS-G12D (class symbols) of 50 to 80%.
The molecule `C#Cc1c(F)ccc2cc(O)cc(-c3ncc4c(N5CC6CCC(C5)N6)nc(NCC5(CN6CCN(CC7CCC8(CC7)CCN(C(=O)c7ccc(C)c(N9CCC(=O)NC9=O)c7)CC8)CC6)CC5)nc4c3F)c12` [Example 44, 1-(5-(9-((4-((1-(((4-(3,8-diazabicyclo[3.2.1]octan-3-yl)-7-(8-ethynyl-7-fluoro-3-hydroxynaphthalen-1-yl)-8-fluoropyrido[4,3-d]pyrimidin-2-yl)amino)methyl)cyclopropyl)methyl)piperazin-1-yl)methyl)-3-azaspiro[5.5]undecane-3-carbonyl)-2-methylphenyl)dihydropyrimidine-2,4(1H,3H)-dione] showed an IC50 in assay [1] (class symbols) of 100 to 500 nM. The molecule further registered an IC50 in assay [2] (class symbols) of no more than 50 nM. At KRAS-G12D (class symbols), this molecule gave a DC50 of no more than 50 nM and a Dmax of 80 to 100%.
For the molecule `CCc1cccc2cc(O)cc(-c3ncc4c(N5CC6CCC(C5)N6)nc(NCC5(CN6CCN(CC7CCC8(CC7)CCN(C(=O)c7ccc(Cl)c(N9CCC(=O)NC9=O)c7)CC8)CC6)CC5)nc4c3F)c12` [Example 47, 1-(5-(9-((4-((1-(((4-(3,8-diazabicyclo[3.2.1]octan-3-yl)-7-(8-ethyl-3-hydroxynaphthalen-1-yl)-8-fluoropyrido[4,3-d]pyrimidin-2-yl)amino)methyl)cyclopropyl)methyl)piperazin-1-yl)methyl)-3-azaspiro [5.5]undecane-3-carbonyl)-2-chlorophenyl)dihydropyrimidine-2,4(1H,3H)-dione], in assay [1] (class symbols), the IC50 was 50 to 100 nM. Also, in assay [2] (class symbols), the IC50 was 50 to 100 nM. On KRAS-G12D (class symbols), this molecule registered a DC50 of 100 to 500 nM and a Dmax of 50 to 80%.
As to `C#Cc1c(F)ccc2cc(O)cc(-c3ncc4c(N5CC6CCC(C5)N6)nc(OCC5(CN6CCN(CC7CCC8(CC7)CCN(C(=O)c7ccc(F)c(N9CCC(=O)NC9=O)c7)CC8)CC6)CC5)nc4c3F)c12` [Example 48, 1-(5-(9-((4-((1-(((4-(3,8-diazabicyclo[3.2.1]octan-3-yl)-7-(8-ethynyl-7-fluoro-3-hydroxynaphthalen-1-yl)-8-fluoropyrido[4,3-d]pyrimidin-2-yl)oxy)methyl)cyclopropyl)methyl)piperazin-1-yl)methyl)-3-azaspiro[5.5]undecane-3-carbonyl)-2-fluorophenyl)dihydropyrimidine-2,4(1H,3H)-dione], the IC50 in assay [1] (class symbols) and in assay [2] (class symbols) was no more than 50 nM each time. This molecule showed a DC50 at KRAS-G12D (class symbols) of no more than 50 nM. At KRAS-G12D (class symbols), this molecule registered a Dmax of 80 to 100%.
For the molecule `CCc1cccc2cc(O)cc(-c3ccc4c(N5CC6CCC(C5)N6)nc(OCC5(CN6CCN(CC7CCC8(CC7)CCN(C(=O)c7ccc(Cl)c(N9CCC(=O)NC9=O)c7)CC8)CC6)CC5)nc4c3F)c12` [Example 62, 1-(5-(9-((4-((1-(((4-(3,8-diazabicyclo[3.2.1]octan-3-yl)-7-(8-ethyl-3-hydroxynaphthalen-1-yl)-8-fluoroquinazolin-2-yl)oxy)methyl)cyclopropyl)methyl)piperazin-1-yl)methyl)-3-azaspiro[5.5]undecane-3-carbonyl)-2-chlorophenyl)dihydropyrimidine-2,4(1H,3H)-dione], the IC50 in assay [1] (numeric values) worked out at 13.1 nM; in assay [2] (numeric values), 4.98 nM. In addition, it took 15.8 nM to reach half-maximal degradation at KRAS-G12D (numeric values) (DC50). At KRAS-G12D (numeric values), this molecule showed a Dmax of 94.8%.
The corresponding values for `CCc1c(F)ccc2cc(O)cc(-c3ccc4c(N5CC6CCC(C5)N6)nc(OCC5(CN6CCN(CC7CCC8(CC7)CCN(C(=O)c7ccc(Cl)c(N9CCC(=O)NC9=O)c7)CC8)CC6)CC5)nc4c3F)c12` [Example 74, 1-(5-(9-((4-((1-(((4-(3,8-diazabicyclo[3.2.1]octan-3-yl)-7-(8-ethyl-7-fluoro-3-hydroxynaphthalen-1-yl)-8-fluoroquinazolin-2-yl)oxy)methyl)cyclopropyl)methyl)piperazin-1-yl)methyl)-3-azaspiro[5.5]undecane-3-carbonyl)-2-chlorophenyl)dihydropyrimidine-2,4(1H,3H)-dione] are 31.6 nM, 15.7 nM, 38.1 nM and 77%.
The like results for `C#Cc1cccc2cc(O)cc(-c3ccc4c(N5CC6CCC(C5)N6)nc(OCC5(CN6CCN(CC7CCC8(CC7)CCN(C(=O)c7ccc(OC)c(N9CCC(=O)NC9=O)c7)CC8)CC6)CC5)nc4c3F)c12` [Example 76, 1-(5-(9-((4-((1-(((4-(3,8-diazabicyclo[3.2.1]octan-3-yl)-7-(8-ethynyl-3-hydroxynaphthalen-1-yl)-8-fluoroquinazolin-2-yl)oxy)methyl)cyclopropyl)methyl)piperazin-1-yl)methyl)-3-azaspiro[5.5]undecane-3-carbonyl)-2-methoxyphenyl)dihydropyrimidine-2,4(1H,3H)-dione] were, in that order, 74.8 nM, 9.53 nM, 1.74 nM and 89.3%.
